Experimental data: PubChem BioAssay AID1963848 (Molecular Pharmacology Branch, DTP, NCI, 2024)
Where “and” joins values, the source holds several entries; their conditions need not be identical. Equal entries are not always repeated.

Test system: 379773-124-R-J2-PDC spheroid viability
Assay: Anticancer human tumor 379773-124-R-J2-PDC patient-derived endometrial carcinoma cell line growth inhibition [POLQ]
Conditions: spheroids with HUVEC and MSC; for viability, T/C: stronger effect = lower value
Description: Multicellular complex tumor spheroid response to Polymerase (POL) inhibitors (novobiocin, ART-558, RP6685) in combination with a variety of drugs and investigational agents in selected tumor cell lines
The POL inhibitors (novobiocin, ART-558, and RP6685) were evaluated both individually and in combination with standard of care and investigational anticancer small molecules within a complex spheroid model of solid tumors. . Complex spheroids include a stromal component modeled by human endothelial cells (HUVEC) and fibroblasts modeled by human mesenchymal stem cells (MSCs). The concentration ranges selected for each drug and investigational agent were based upon clinically achievable concentrations if the clinical Cmax of the agent was known.
Compounds. The drugs and investigational agents: novobiocin (NSC847541), ART-558 (NSC835418), RP-6685 (NSC848927), peposertib (NSC802822), ceralasertib (NSC780249), elimusertib (NSC800525), camonsertib (NSC841442), AZD-1390 (NSC803789), olaparib (NSC753686), talazoparib (NSC767125), rucaparib (NSC756644), sotorasib (NSC818433), MRTX-1133 (NSC836407), SN-38 (NSC673596), topotecan (NSC609699), epotoside (NSC141540), doxorubicin (NSC123127), gemcitabine (NSC613327), 5-fluorouracil (NSC19893), paclitaxel (NSC125973), vemurafenib (NSC761431), MSA-2 (NSC828583), SN-011 (NSC837082), adavosertib (NSC754352), prexasertib (NSC758257), carboplatin (NSC241240) and oxaliplatin (NSC266046), were obtained from the National Cancer Institute (NCI) Developmental Therapeutics Program Chemical Repository (21). The FDA-approved anticancer drug set is available from the Developmental Therapeutics Program at https://dtp.cancer.gov/organization/dscb/obtaining/. […] The stock solutions were prepared in dimethyl sulfoxide (DMSO, Sigma-Aldrich, St. Louis, MO, cat. D2650), except for the platinum compounds which were prepared in saline (Quality Biological, Gaithersburg, MD, cat. 114-055-101), at 800-fold the tested concentration and stored at -70 degrees C prior to their use. All drugs and investigational agents were tested over a range starting from a high concentration at or near the clinical Cmax and decreasing in half-log increments. If the clinical Cmax for an agent had not been determined, the highest concentration tested was 10 microM, except for SN-38, which was tested at a high concentration of 1 microM.
Cell Culture. All cells were maintained in an incubator at 37 degrees C and 5% CO2 with 95% humidity. The PDC lines were cultured according to standard operating procedures established by the NCI PDMR (https://pdmr.cancer.gov). Table 3 of the manuscript, lists the cell lines along with the number of the three cell types plated to form the mct-spheroids and media for tumor cell growth. After thawing, all PDC lines, except 997537-175-T-J1-PDC and 415267-285-R-J2-PDC, were cultured in Matrigel-coated flasks prepared with a working solution of 1X Ham's F-12 nutrient mix, without supplementation (Thermo Fisher Scientific, cat. 11765054), 100 U/mL penicillin-streptomycin (Thermo Fisher Scientific, cat. 15140122), and 2.5% Matrigel (Corning Inc., Corning, NY, cat. 354248) for the first three passages. The two PDC lines 997537-175-T-J1-PDC and 415267-285-R-J2-PDC were cultured on uncoated flasks. The 857933-349-R-J2-PDC line was cultured in 6C/Colon 1B media containing advanced DMEM/F-12 (Thermo Fisher Scientific, cat. 12634028), 10 mM HEPES (Thermo Fisher Scientific, cat. 15630080), 1X GlutaMAX supplement (Thermo Fisher Scientific, cat. 35050061), 0.1 mg/mL primocin (InvivoGen, San Diego, CA, cat. ant-pm-2), 10% defined fetal bovine serum, heat inactivated (HyClone Laboratories Inc., Logan, UT, cat. SH30070.03HI), 50% L-WRN conditioned media (ATCC, cat. CRL-3276), 1.25 mM N-Acetyl-L-cysteine (Sigma-Aldrich, cat. A9165), 10 mM nicotinamide (Sigma-Aldrich, cat. N0636), 1X B-27 supplement (Thermo Fisher Scientific, cat. 17504044), 1X N-2 supplement (Thermo Fisher Scientific, cat. […]
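Also: spheroids exposed to drugs for seven days before readout.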
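For viability, T/C in this document: percent viability relative to DMSO vehicle control taken as 100%.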

Compound: CCc1cc2c(N3CCc4c(cc(Cn5ccnc5)cc4-c4cn(C)nc4C(F)(F)F)C3=O)cc(C)nc2c(OC)n1 + COC1C(OC(N)=O)C(O)C(Oc2ccc3c(O)c(NC(=O)c4ccc(O)c(CC=C(C)C)c4)c(=O)oc3c2C)OC1(C)C
- IC50 (curve of first compound, second compound 0.0316 µM): 1220 nM
- IC50 (curve of first compound, second compound 0.1 µM): 2130 nM
- IC50 (curve of first compound, second compound 0.316 µM): 3320 nM
- IC50 (curve of first compound, second compound 1 µM): 1500 nM
- IC50 (curve of first compound, second compound 3.16 µM): 2070 nM
- IC50 (curve of first compound, second compound 10 µM): 3150 nM
- viability, T/C (second compound 0.0316 µM, first compound 0.0316 µM): 68.2%
- viability, T/C (second compound 0.0316 µM, first compound 0.1 µM): 63.2%
- viability, T/C (second compound 0.0316 µM, first compound 0.316 µM): 53.7%
- viability, T/C (second compound 0.0316 µM, first compound 1 µM): 53%
- viability, T/C (second compound 0.0316 µM, first compound 3.16 µM): 45.5%
- viability, T/C (second compound 0.0316 µM, first compound 10 µM): 48.5%
- viability, T/C (second compound 0.1 µM, first compound 0.0316 µM): 62.2%
- viability, T/C (second compound 0.1 µM, first compound 0.1 µM): 62.3%
- viability, T/C (second compound 0.1 µM, first compound 0.316 µM): 58.1%
- viability, T/C (second compound 0.1 µM, first compound 1 µM): 51.3%
- viability, T/C (second compound 0.1 µM, first compound 3.16 µM): 49.4%
- viability, T/C (second compound 0.1 µM, first compound 10 µM): 41.7%
- viability, T/C (second compound 0.316 µM, first compound 0.0316 µM): 68.5%
- viability, T/C (second compound 0.316 µM, first compound 0.1 µM): 63.6%
- viability, T/C (second compound 0.316 µM, first compound 0.316 µM): 63.8%
- viability, T/C (second compound 0.316 µM, first compound 1 µM): 52.6%
- viability, T/C (second compound 0.316 µM, first compound 3.16 µM): 49.2%
- viability, T/C (second compound 0.316 µM, first compound 10 µM): 46.3%
- viability, T/C (second compound 1 µM, first compound 0.0316 µM): 66.4%
- viability, T/C (second compound 1 µM, first compound 0.1 µM): 69.4%
- viability, T/C (second compound 1 µM, first compound 0.316 µM): 58.1%
- viability, T/C (second compound 1 µM, first compound 1 µM): 54.6%
- viability, T/C (second compound 1 µM, first compound 3.16 µM): 43.8%
- viability, T/C (second compound 1 µM, first compound 10 µM): 37.8%
- viability, T/C (second compound 3.16 µM, first compound 0.0316 µM): 68.4%
- viability, T/C (second compound 3.16 µM, first compound 0.1 µM): 59.6%
- viability, T/C (second compound 3.16 µM, first compound 0.316 µM): 50.1%
- viability, T/C (second compound 3.16 µM, first compound 1 µM): 55.8%
- viability, T/C (second compound 3.16 µM, first compound 3.16 µM): 50%
- viability, T/C (second compound 3.16 µM, first compound 10 µM): 46.5%
- viability, T/C (second compound 10 µM, first compound 0.0316 µM): 77%
- viability, T/C (second compound 10 µM, first compound 0.1 µM): 58.7%
- viability, T/C (second compound 10 µM, first compound 0.316 µM): 61.5%
- viability, T/C (second compound 10 µM, first compound 1 µM): 55.7%
- viability, T/C (second compound 10 µM, first compound 3.16 µM): 54.9%
- viability, T/C (second compound 10 µM, first compound 10 µM): 42.2%

Compound: CCc1c2c(nc3ccc(O)cc13)-c1cc3c(c(=O)n1C2)COC(=O)[C@]3(O)CC
- viability, T/C (compound 0.00316 µM): 45.6% and 49.3% and 46.8%
- viability, T/C (compound 0.01 µM): 11.9% and 17.2% and 7.71%
- viability, T/C (compound 0.0316 µM): 6.11% and 11.4% and 5.39%
- viability, T/C (compound 0.1 µM): 2.46% and 4.85% and 2.38%
- viability, T/C (compound 0.316 µM): 1.23% and 4.28% and 1.04%
- viability, T/C (compound 1 µM): 1.89% and 0.95% and 0.4%
- IC50 (curve of compound): < 3.16 nM

Compound: CCc1cc2c(N3CCc4c(cc(Cn5ccnc5)cc4-c4cn(C)nc4C(F)(F)F)C3=O)ccnc2c(OC)n1
- viability, T/C (compound 0.0316 µM): 72.1% and 87.3% and 77.8%
- viability, T/C (compound 0.1 µM): 65% and 74.8% and 74.2%
- viability, T/C (compound 0.316 µM): 53.4% and 64% and 69.2%
- viability, T/C (compound 1 µM): 54.6% and 64.1% and 67.8%
- viability, T/C (compound 3.16 µM): 63.3% and 59.9% and 57.4%
- viability, T/C (compound 10 µM): 37.2% and 57.8% and 53.6%
- IC50 (curve of compound): 3400 nM and > 10000 nM

Compound: CC1COCCN1c1cc(C2(S(C)(=N)=O)CC2)nc(-c2ccnc3[nH]ccc23)n1 (stereo not given)
- viability, T/C (compound 0.0316 µM): 78.3% and 87.6% and 81.5%
- viability, T/C (compound 0.1 µM): 69.2% and 89.3% and 88.1%
- viability, T/C (compound 0.316 µM): 71.7% and 86.7% and 72.9%
- viability, T/C (compound 1 µM): 80.9% and 82.7% and 76.1%
- viability, T/C (compound 3.16 µM): 34.5% and 44.9% and 28.5%
- viability, T/C (compound 10 µM): 5.53% and 11.9% and 6.3%
- IC50 (curve of compound): 2040 nM and 2710 nM and 1870 nM

Compound: Nc1ccn(C2OC(CO)C(O)C2(F)F)c(=O)n1 (stereo not given)
- viability, T/C (compound 0.0316 µM): 25.4% and 19.1% and 15.5%
- viability, T/C (compound 0.1 µM): 8.86% and 11.2% and 9%
- viability, T/C (compound 0.316 µM): 8.47% and 12.9% and 7.5%
- viability, T/C (compound 1 µM): 10.6% and 10.1% and 9.75%
- viability, T/C (compound 3.16 µM): 10.8% and 13.3% and 10.3%
- viability, T/C (compound 10 µM): 7.47% and 10.7% and 7.2%
- IC50 (curve of compound): < 31.6 nM
